In PMC9686514, “Design of Antimicrobial Peptides with Cell-Selective Activity and Membrane-Acting Mechanism against Drug-Resistant Bacteria” (Antibiotics, 2022):
Where no end group is shown, it is not given here.

Assays:
Format in all cases: cell-based
rat red blood cells = assay: Hemolysis; settings: 6.25 µM; 8% (v/v) rat RBCs in PBS, 1 h, 37 °C, absorbance 414 nm
Method: Fresh rat erythrocytes were collected and washed by centrifugation at 1000× g for 10 min with PBS. The rat RBCs (8% (v/v)) were added in a two-fold serially diluted peptide with PBS, followed by incubation for 1 h at 37 °C. After centrifugation of samples at 1000× g for 10 min, the supernatants were collected and their absorbance was measured at 414 nm. The 8% RBCs dissolved in PBS and RBCs treated with Triton X-100 were considered as the negative and positive controls, respectively. The hemolysis activity was calculated using the formula, % hemolysis = [(Abssample − Absnegative)/(Abspositive − Absnegative)] × 100 [43, 44].

[1] = tested on: HaCaT (human keratinocyte) cells; assay: Cytotoxicity (MTT); settings: 200 µM, 24 h, 37 °C
Method: To examine the cytotoxic effect of peptides, HaCaT (human keratinocyte) cells were sub-cultured in Dulbecco’s modified Eagle medium (DMEM) containing 10% fetal bovine serum, 100 µg/mL streptomycin, and 100 U/mL penicillin at 37 °C in a 5% CO2 chamber. The cells seeded into 4 × 10^3 cells/well were incubated for 24 h. Peptide solutions diluted with DMEM were incubated with cells for 24 h at 37 °C. 3-(4,5-Dimethyl-2-thiazolyl)-2,5-diphenyltetrazolium Bromide (MTT) solution was added to the cells, followed by additional incubation for 4 h. After removing the media, 200 µL of dimethyl sulfoxide was added to the wells. Absorbance of each well was measured at 570 nm using a microtiter reader (Molecular Devices Emax, CA, USA).

[2] = tested on: Pseudomonas aeruginosa (ATCC 15692); settings: ATCC 15692, 24 h, pH 7.2
Source text: (§1) Pseudomonas aeruginosa (ATCC 15692), Escherichia coli (ATCC 25922), and Staphylococcus aureus (ATCC 25923) were purchased from the American Type Culture Collection. Listeria monocytogens (KCTC 3710) and Bacillus subtilis (KCTC 1998) were from the Korean Collection for Type Cultures. Drug-resistant S. aureus (DRSa-001~005) and P. aeruginosa (DRPa-001~005) were collected from Paik Hospital of Inje University in Busan, South Korea. Pre-cultured bacteria grown to mid-log phase were suspended in 10 mM sodium phosphate (SP, pH 7.2) or phosphate-buffered saline (PBS, pH 7.2) with 10% culture media. Bacterial suspensions were added to each peptide dilute (final 5 × 10^5 colony-forming units (cfu)/mL), after which the plates were incubated at 37 °C for 24 h. The turbidity of each well was measured at the absorbance at 600 nm and the morphology of bacterial growth was observed under light microscopy. MICs (Minimum inhibitory concentrations) were defined as the lowest concentration of peptide that expresses the complete inhibition of bacterial growth.

[3] = tested on: Bacillus subtilis (KCTC 1998); settings: KCTC 1998, 24 h, pH 7.2
Source text: as §1

[4] = tested on: Staphylococcus aureus (ATCC 25923); settings: ATCC 25923, 24 h, pH 7.2
Source text: as §1

[5] = tested on: Escherichia coli (ATCC 25922); settings: ATCC 25922, 24 h, pH 7.2
Source text: as §1

[6] = tested on: Listeria monocytogenes (KCTC 3710); settings: KCTC 3710, 24 h, pH 7.2
Source text: as §1

MIC, Pa [2] | MIC, Pa (numbers in parentheses) [2] | MIC, Bs [3] | MIC, Bs (numbers in parentheses) [3] | MIC, Sa [4] | MIC, Sa (numbers in parentheses) [4] | MIC, Ec [5] | MIC, Ec (numbers in parentheses) [5] | MIC, Lm [6] | MIC, Lm (numbers in parentheses) [6] | Compound | Hemolytic effect (rat red blood cells) | Cell survival [1]
– | – | – | – | – | – | – | – | – | – | CC[C@H](C)[C@H](NC(=O)CN)C(=O)NCC(=O)N[C@@H](C)C(=O)N[C@H](C(=O)N[C@@H](CC(C)C)C(=O)N[C@@H](CCCCN)C(=O)N[C@H](C(=O)N[C@@H](CC(C)C)C(=O)N[C@H](C(=O)N[C@H](C(=O)NCC(=O)N[C@@H](CC(C)C)C(=O)N1CCC[C@H]1C(=O)N[C@@H](C)C(=O)N[C@@H](CC(C)C)C(=O)N[C@H](C(=O)N[C@@H](CO)C(=O)N[C@@H](Cc1c[nH]c2ccccc12)C(=O)N[C@H](C(=O)N[C@@H](CCCCN)C(=O)N[C@@H](CCCNC(=N)N)C(=O)N[C@@H](CCCCN)C(=O)N[C@@H](CCCNC(=N)N)C(=O)N[C@@H](CCC(N)=O)C(=O)N[C@@H](CCC(N)=O)C(N)=O)[C@@H](C)CC)[C@@H](C)CC)[C@@H](C)O)[C@@H](C)O)C(C)C)C(C)C [Melittin] | strong hemolytic effect | less than 20%
2(2) μM | 2(2) μM | 1 µM | 2 µM | 4 µM | 8 µM | 4(4) μM | 4(4) μM | 0.5 µM | 1 µM | KKIIKKIIKKIWKW-NH2 [KIW-14] | – | –
16 µM | 64 µM | 4 µM | 32 µM | 16 µM | 128 µM | 8 µM | 64 µM | 4 µM | 128 µM | KKIIKKIWKW-NH2 [KIW-10] | – | –
16 µM | 64 µM | 2 µM | 32 µM | 16 µM | 128 µM | 8 µM | 64 µM | 2 µM | 64 µM | KKIWKKWIKI-NH2 [KWI-10] | – | –
2(2) μM | 2(2) μM | 1 µM | 2 µM | 4 µM | 8 µM | 4(4) μM | 4(4) μM | 0.5 µM | 1 µM | KKIWKKWIKKIIKI-NH2 [KWI-14] | – | –
16 µM | 32 µM | 2 µM | 4 µM | 8 µM | 16 µM | 8 µM | 16 µM | 2 µM | 8 µM | RRIIRRIWRW-NH2 [RIW-10] | – | –
16 µM | 32 µM | 1 µM | 4 µM | 8 µM | 16 µM | 2 µM | 4 µM | 2 µM | 8 µM | RRIWRRWIRI-NH2 [RWI-10] | – | –
8 µM | 32 µM | 2 µM | 8 µM | 16 µM | 128 µM | 4 µM | 64 µM | 4 µM | 8 µM | WIKKIWKKIIKEIK-NH2 [WIKE-14] | – | –
2(2) μM | 2(2) μM | 1(1) μM | 1(1) μM | 2((2) μM | 2((2) μM | 4(4) μM | 4(4) μM | 0.5 µM | 1 µM | WIKKIWKKIIKKIK-NH2 [WIK-14] | – | –
8 µM | 32 µM | 2 µM | 8 µM | 8 µM | 64 µM | 8 µM | 32 µM | 2 µM | 16 µM | WIKKIWKKIK-NH2 [WIK-10] | – | –
4 µM | 8 µM | 1(1) μM | 1(1) μM | 4 µM | 8 µM | 2 µM | 4 µM | 2(2) μM | 2(2) μM | WIRRIWRRIR-NH2 [WIR-10] | – | –
